Experimental data taken from ChEMBL document CHEMBL1140205, “Discovery and development of fatty acid amide hydrolase (FAAH) inhibitors” (J Med Chem, 2008).

Key:
[1] = molecular target: T1, Fatty-acid amide hydrolase 1 (Homo sapiens, UniProt O00519); test: Inhibition of FAAH
T1 sequence (O00519 whole entry): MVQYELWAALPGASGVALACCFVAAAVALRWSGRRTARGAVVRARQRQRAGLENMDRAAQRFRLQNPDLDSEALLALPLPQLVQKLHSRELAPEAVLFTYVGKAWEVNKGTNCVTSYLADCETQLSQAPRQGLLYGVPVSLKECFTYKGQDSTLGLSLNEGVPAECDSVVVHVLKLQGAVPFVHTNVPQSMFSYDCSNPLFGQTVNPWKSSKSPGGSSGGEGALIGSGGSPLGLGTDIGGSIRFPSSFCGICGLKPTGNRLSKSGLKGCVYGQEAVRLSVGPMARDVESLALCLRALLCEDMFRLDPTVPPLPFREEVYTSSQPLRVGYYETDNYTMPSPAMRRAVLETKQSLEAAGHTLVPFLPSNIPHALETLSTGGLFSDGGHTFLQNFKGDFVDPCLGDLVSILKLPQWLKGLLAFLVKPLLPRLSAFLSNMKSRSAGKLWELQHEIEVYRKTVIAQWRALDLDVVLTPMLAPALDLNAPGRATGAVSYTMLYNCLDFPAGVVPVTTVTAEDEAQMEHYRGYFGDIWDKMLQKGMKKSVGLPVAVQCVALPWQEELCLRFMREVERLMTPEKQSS

[2] = molecular target: T1, Fatty-acid amide hydrolase 1; test: Inhibition of human FAAH

CCCCCCCC/C=C\CCCCCCC(=O)c1nc(-c2ccccc2)c(-c2ccccc2)o1
Ki [1]: > 100000 nM

OB(O)c1ccc(Oc2ccccc2)cc1
IC50 ([1]; read-out: IC50): < 10 nM

CCCCCCCC/C=C\CCCCCCCC(=O)C(F)(F)F
Ki [1]: 12 nM

CCCCCCCCCCCCCC(=O)C(F)(F)F
Ki [1]: 490 nM

CCCCCCCC/C=C\CCCCCCC(=O)c1nc2ccc(C)cc2o1
Ki [1]: > 100000 nM

CCOC(=O)CCCc1ccc(-n2c(CC)nc(-c3ccccc3)c2-c2ccccc2)cc1
IC50 ([1]; read-out: IC50): 64 nM

CCCCCCCC/C=C\CCCCCCCC(=O)C(N)=O
Ki [1]: 17 nM

CCCCCCCC/C=C\CCCCCCC(=O)c1nccs1
Ki [1]: > 100000 nM

CCCCCCCC/C=C\CCCCCCC(=O)c1nc2cc(C)ccc2o1
Ki [1]: > 100000 nM

O=C(CCCCCCCc1ccccc1)c1nc2ncccc2o1
Ki [1]: 0.39 nM

C=CCNC(=O)CCCCCCCCCCCCCCC [HEXADECANOIC ACID ALLYLAMIDE]
IC50 ([1]; read-out: pIC50 (converted)): 3390 nM

CCCCCCCC/C=C\CCCCCCC(=O)c1nc2cnccc2o1
Ki [1]: 7.2 nM

CCCCCCCC/C=C\CCCCCCC(=O)c1ncc(-c2ccoc2)o1
Ki [1]: 610 nM

CCCCCCCC/C=C\CCCCCCC(=O)c1ncc(-c2ccccc2)o1
Ki [1]: 320 nM

CCCCCCCC/C=C\CCCCCCCC(C)=O
Ki [1]: > 100000 nM

CCCCCCCC/C=C\CCCCCCC(=O)c1nc2c(C)cccc2o1
Ki [1]: > 100000 nM

CCCCCCCC/C=C\CCCCCCC(=O)c1cccnn1
Ki [1]: 130 nM

CC(C)c1cccc(CN2CCC(CCCC(=O)c3ncco3)CC2)c1
IC50 ([1]; read-out: IC50): 3.6 nM

O=C(NC1CCCCC1)Oc1ccc2ccccc2c1
IC50 [2]: 324 nM

CCCCCCCC/C=C\CCCCCCC(=O)c1nccn1C
Ki [1]: > 100000 nM

CCCCCCCC/C=C\CCCCCCC(=O)c1nc2ccncc2o1
Ki [1]: 3.7 nM

CCCCC/C=C\C/C=C\C/C=C\C/C=C\CCCC(=O)NC12CC3CC(CC(C3)C1)C2
IC50 ([1]; read-out: IC50): 37400 nM

O=C(Nc1cccc(C(=O)c2nc3ccccc3o2)c1)NC1CCCC1
IC50 ([1]; read-out: IC50): > 300000 nM

CCCCCCCC/C=C\CCCCCCC(=O)c1ccncn1
Ki [1]: 110 nM

CCCCCCCCCCCC(=O)C(F)(F)F
Ki [1]: 140 nM

O=C(CCCCCc1ccccc1)c1nc2ncccc2o1
Ki [1]: 0.2 nM

O=C(CCCCOCc1ccccc1)c1ncc(-c2ccccn2)o1
Ki [1]: 55 nM

CCCCCCCC/C=C\CCCCCCCC(=O)O [OLEIC ACID]
Ki [1]: 6000 nM

CCCCCCCCCCCCCCCC(=O)NCC
IC50 ([1]; read-out: pIC50 (converted)): 3550 nM

CCCCCCCC/C=C\CCCCCCCC(O)C(N)=O (configuration not stated)
Ki [1]: > 100000 nM

CCCCCCCC/C=C\CCCCCCCC=O [OLEALDEHYDE]
Ki [1]: 190 nM

CCCCCCCC/C=C\CCCCCCC(=O)c1nc2ncccc2o1
Ki [1]: 2.3 nM

O=C(CCc1ccc(COc2ccccc2)cc1)c1ncc(-c2ccccn2)o1
Ki [1]: 1 nM

O=C(CCCC[S+]([O-])Cc1ccccc1)c1ncc(-c2ccccn2)o1 (configuration not stated)
Ki [1]: 2500 nM

CN(CCCCC(=O)c1ncc(-c2ccccn2)o1)Cc1ccccc1
Ki [1]: 200 nM

CCCCCCCC/C=C\CCCCCCC(=O)c1ccccc1
Ki [1]: > 100000 nM

CCCCCCC(C)OC(=O)CC(=O)CBr (configuration not stated)
Ki [1]: 820 nM

CCCCCCCCCC(=O)C(F)(F)F
Ki [1]: 130 nM

CCCCC/C=C\C/C=C\C/C=C\C/C=C\CCCC(=O)NCC1CC1
IC50 ([1]; read-out: IC50): 1400 nM

CCCCCCCC/C=C\CCCCCCCC(=O)CCl
Ki [1]: 700 nM

O=C(CCCCCCc1ccccc1)c1nnn[nH]1
Ki [1]: > 1000 nM

CCCCCCCC/C=C\CCCCCCC(=O)c1ncc(-c2ccsc2)o1
Ki [1]: 13200 nM

O=C(CCCCCCc1ccccc1)c1nc2ncccc2o1
Ki [1]: 0.28 nM

O=C(NC1CCCCC1)Oc1cccc(-c2ccccc2)c1
IC50 [2]: 63 nM

CCCCCCCC/C=C\CCCCCCC(=O)c1ncco1
Ki [1]: 17 nM

CCCCCCCCCCCCCCCC(=O)NCCCl
IC50 ([1]; read-out: pIC50 (converted)): 2630 nM

O=C(O)c1cccc(CCCCCCC(=O)c2ncc(-c3ccccn3)o2)c1
Ki [1]: > 600 nM

CCCCC/C=C\C/C=C\C/C=C\C/C=C\CCCC(=O)Nc1cccnc1
IC50 ([1]; read-out: IC50): 1200 nM

CCCCCCCC/C=C\CCCCCCC(=O)c1nc2ccccc2o1
Ki [1]: 370 nM

CCCCCCCCCCCCCCN1C(=O)C(c2ccccc2)(c2ccccc2)NC1=S
IC50 ([1]; read-out: pIC50 (converted)): 1150 nM

O=C(CCCCS(=O)(=O)Cc1ccccc1)c1ncc(-c2ccccn2)o1
Ki [1]: > 10000 nM

CCCCC/C=C\C/C=C\C/C=C\C/C=C\CCCC(=O)NCCCl
IC50 ([1]; read-out: IC50): 900 nM

CCCCC/C=C\C/C=C\C/C=C\C/C=C\CCCNC(=O)NCc1ccc(OC)c(O)c1
IC50 ([1]; read-out: IC50): 2000 nM

O=C(CCCCCCc1cccc(Cl)c1)c1ncc(-c2ccccn2)o1
Ki [1]: 0.9 nM

CCCCCCCCCCCCCCCC(=O)NCCCO [N-(3-HYDROXYPROPYL)PALMITAMIDE]
IC50 ([1]; read-out: pIC50 (converted)): 3800 nM

O=C(NCC1CCCCC1)Oc1ccc(C(=O)O)cc1
IC50 [2]: < 100 nM

O=C(CCCCCCc1ccccc1)C(F)(F)F
Ki [1]: 100 nM

O=C(CCCCCCc1ccccc1)c1nnn(-c2ccccn2)n1
Ki [1]: 1.1 nM

O=C(CCCCCCCCc1ccccc1)c1nc2ncccc2o1
Ki [1]: 0.52 nM

CCCCCCCC/C=C\CCCCCCC(=O)c1ncc(-c2ccncc2)o1
Ki [1]: 56 nM

O=C(NC1CCCC1)Oc1cccc(C(=O)c2nc3ccccc3s2)c1
IC50 ([1]; read-out: IC50): 47000 nM

CCCCCCCC/C=C\CCCCCCC(=O)c1ccccn1
Ki [1]: > 100000 nM

O=C(NC1CCCC1)Oc1cccc(C(=O)c2nc3ccccc3o2)c1
IC50 ([1]; read-out: IC50): 28000 nM

CCCCC/C=C\C/C=C\C/C=C\C/C=C\CCCC(=O)NCCO [ANANDAMIDE]
IC50 ([1]; read-out: IC50): 3400 nM

CCCCCCCC/C=C\CCCCCCC(=O)c1nnc(-c2ccccn2)o1
Ki [1]: 3000 nM

O=C(CCCCSCc1ccccc1)c1ncc(-c2ccccn2)o1
Ki [1]: 25 nM

CCCCCCCC/C=C\CCCCCCC(=O)c1nnn(C)n1
Ki [1]: 65 nM

CCCCCCCC/C=C\CCCCCCC(=O)c1nc2cccc(C)c2o1
Ki [1]: 13000 nM

O=C(CCCCc1ccccc1)c1nc2ncccc2o1
Ki [1]: 0.3 nM

CCCCCCCCCCCCCCCC(=O)NCCCCl
IC50 ([1]; read-out: pIC50 (converted)): 2510 nM

CCCCCCCC/C=C\CCCCCCC(=O)c1ncc(-c2ccco2)o1
Ki [1]: 54 nM

CCCCCCCC/C=C\CCCCCCCC(OC)OC
Ki [1]: > 300000 nM

CNC(=O)Oc1cccc2ccccc12 [CARBARIL]
IC50 [2]: > 30000 nM

CCCCCCCC/C=C\CCCCCCCC(=O)C(=O)OCC
Ki [1]: 9 nM

O=C(CCCCCCc1ccccc1)c1nnc[nH]1
Ki [1]: > 1000 nM

CCCCCCCCCCCCCCCCCC(=O)C(F)(F)F
Ki [1]: 240 nM

CCCCCCCCCCCCCCCC(=O)NCCBr
IC50 ([1]; read-out: pIC50 (converted)): 3550 nM

CCCCCCCC/C=C\CCCCCCC(=O)c1nc2cccnc2o1
Ki [1]: 11 nM

CCCCCCCC/C=C\CCCCCCC(=O)c1ncc(-c2ccccn2)o1
Ki [1]: 18 nM

CCCCCC(=O)C(F)(F)F
Ki [1]: 28900 nM

NC(=O)c1cccc(-c2cccc(OC(=O)NCCCCCCc3ccccc3)c2)c1
IC50 [2]: 14 nM

O=C(CCCc1ccccc1)c1nc2ncccc2o1
Ki [1]: 6.9 nM

CCCCC/C=C\C/C=C\C/C=C\C/C=C\CCCC(=O)O [ARACHIDONIC ACID]
IC50 ([1]; read-out: IC50): > 100000 nM

CCCCCCCC(=O)C(F)(F)F
Ki [1]: 1200 nM

CNC(=O)COC(=O)N1CCC(CCc2ccc(Cl)cc2)CC1
IC50 ([1]; read-out: IC50): 13 nM

CCCCCCCC/C=C\CCCCCCC(=O)c1ncc(-c2cccnc2)o1
Ki [1]: 61 nM

CCCCCCCC/C=C\CCCCCCC(=O)c1nc(-c2ccccn2)co1
Ki [1]: 31 nM

O=C(CCCCCCc1ccccc1)c1nnc(-c2ccccn2)[nH]1
Ki [1]: > 10000 nM

NC(=O)c1cccc(-c2cccc(OC(=O)NCc3ccc4ccccc4c3)c2)c1
IC50 ([1]; read-out: IC50): 0.63 nM

N#Cc1cnc(C(=O)CCc2ccc(-c3ccccc3)cc2)o1
Ki [1]: 0.2 nM

CCCCCCCC/C=C\CCCCCCCNC(=O)Oc1cccc(-c2cccc(C(N)=O)c2)c1
IC50 [2]: 58 nM

CCCCCCC(=O)C(F)(F)F
Ki [1]: 10700 nM
